From US11166934B2 (Azcuris Co., Ltd., priority 2017, dated 2021)
Where two headings read alike, the source gives them in different places.

What was measured:
binding of TSLP to TSLPR = binding of TSLP to TSLPR (Homo sapiens, UniProt Q969D9); test: ELISA-based TSLP-TSLPR interaction assay (FLAG-TSLP, TSLPR-His, HRP); settings: for inhibitory effects on the binding of TSLP to TSLP receptor (in words): treated alone
[1] = test system: TSLP-mediated phosphorylation of STAT5 in HMC-1 human mast cell line; test: Cell-based efficacy evaluation using FACS: intracellular phosphorylation of STAT5 after TSLP treatment of HMC-1 cells; settings: for Degrees of intracellular phosphorylation of STAT5 molecules (%): HMC-1 cells, TSLP 100 ng/mL, 30 min, control treated with TSLP alone = 100%
Protocol: The binding of TSLP to TSLP receptor activates various signaling pathways, mainly the JAK/STAT pathway. TSLP-mediated signaling is well known to specifically phosphorylate STAT5 among STAT molecules.
In this example, this fact was confirmed through the following experiment.
First, HMC-1, a human mast cell line, was cultured until an appropriate number of cells were maintained in a 96-well plate. […] Cells were fixed with Cytofix. Subsequently, cells were permeabilized with a permeabilization buffer and stained with anti-pSTAT5 antibody at 4° C. for 30 min. Cells were washed three times with the same buffer and analyzed by flow cytometry. […] The intracellular phosphorylation of STAT5 molecules in the control was 100%.

[2] = read-out: TSLP-TSLPR inhibitions (%)

binding of TSLP to TSLPR, sequence (Q969D9 29-159): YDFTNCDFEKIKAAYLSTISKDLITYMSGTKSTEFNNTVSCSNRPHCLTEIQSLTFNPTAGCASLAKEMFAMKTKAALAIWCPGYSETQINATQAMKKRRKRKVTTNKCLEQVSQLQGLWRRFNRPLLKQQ

Structure (SMILES)	inhibition at 150 µM (binding of TSLP to TSLPR; [2]) [%]	inhibition at 300 µM (binding of TSLP to TSLPR; [2]) [%]	inhibitory effects on the binding of TSLP to TSLP receptor (in words) (binding of TSLP to TSLPR)	further results
CN(C)CCOc1nc2ccccc2c2oc(-c3ccccc3)nc12 [Formula 6, N,N-dimethyl-2-((2-phenyloxazolo[4,5-c]quinolin4-yl)oxy)ethanamine]	5.4 ± 0.7	19.3 ± 3	insignificant inhibitory effects	
CN(C)CCn1c(=O)c2nc(-c3ccccc3)oc2c2ccccc21 [Formula 5, 5-(2-(dimethylamino)ethyl)-2-phenyloxazolo[4,5-c]quinolin-4(5H)-one]	10.2 ± 17	21.6 ± 3.4	insignificant inhibitory effects	inhibition at 100 µM (binding of TSLP to TSLPR; [2]): 6.5 ± 8.6%
Oc1ccc(-c2[o+]c3cc(O)cc(O)c3cc2O)cc1 [Formula 2, pelargonidin chloride]	6.3 ± 0.1	13.1 ± 5.8		
O=c1cc(-c2ccccc2)oc2cc(O)c(O)c(O)c12 [Formula 1, baicalein]				inhibition at 100 µM (binding of TSLP to TSLPR; read-out: TSLP-TSLPR inhibitions (%), 0.1 mM, Table 5): 3.2 ± 1.3%; inhibition at 300 µM (binding of TSLP to TSLPR; read-out: TSLP-TSLPR inhibitions (%), 0.3 mM, Table 2): 45.8 ± 0.7%; inhibition at 300 µM (binding of TSLP to TSLPR; read-out: TSLP-TSLPR inhibitions (%), 0.3 mM, Table 6): 16.5 ± 1.6%; Degrees of intracellular phosphorylation of STAT5 molecules (%) ([1]; 3 μM): 65.7%; Degrees of intracellular phosphorylation of STAT5 molecules (%) ([1]; 10 μM): 61.6%; effect on phosphorylation of STAT5 molecules (in words) ([1]; summary of Table 1): inhibit the phosphorylation of STAT5 molecules
O=C1/C(=C2\Nc3ccccc3C2=O)Nc2ccccc21 [Formula 4, indigo dye]	3.5 ± 2.7			
O=c1c(O)c(-c2ccc(O)cc2)oc2cc(O)cc(O)c12 [Formula 3, kaempferol]	0.6 ± 3.7			
